# Where two headings read alike, the source gives them in different places.
# How the values were obtained:
# [1] = test system: PGE2 secretion in human promyelocytic leukemia cells (HL-60 cells); assay: PGE2 secretion in human promyelocytic leukemia (HL-60) cells (A23187-induced), fluoride and NSAIDs alone or combined; conditions: for % inhibition of PGE2 / % stimulation of PGE2 (value in parentheses): Table II; for % Inhibition of A23187-induced PGE2 secretion / % stimulation of A23187-induced PGE2 secretion: mean of two determinations;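 for all read-outs here: fluoride given as NaF, each condition run in duplicate, signals corrected for background and referenced to control, IC50 obtained by nonlinear regression Hill fitting of the curve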
# G proteins = conditions: under certain circumstances; cited from earlier work
# dental caries = conditions: professionally applied topical fluoride, dentifrices and mouthwashes; high risk patients; cited from earlier work
# [2] = test system: prostaglandin production in endothelial cells; conditions: under certain circumstances; cited from earlier work
# [3] = Homo sapiens, HL-60, read-out: % inhibition of PGE2
# [4] = Homo sapiens, HL-60, read-out: IC50, inhibition of PGE2 secretion, summary of Tables III and IV
# [5] = ketoprofen enantiomer 10^-7 M + F 0.05%
# [6] = ketoprofen enantiomer 10^-7 M + F 0.1%
# [7] = ketoprofen enantiomer 10^-7 M + F 0.5%
# [8] = ketoprofen enantiomer 10^-7 M, F 0%
# [9] = ketoprofen enantiomer 10^-8 M + F 0.05%
# [10] = ketoprofen enantiomer 10^-8 M + F 0.1%
# [11] = ketoprofen enantiomer 10^-8 M + F 0.5%
# [12] = ketoprofen enantiomer 10^-8 M, F 0%
# [13] = ketoprofen enantiomer 10^-9 M + F 0.05%
# [14] = ketoprofen enantiomer 10^-9 M + F 0.1%
# [15] = ketoprofen enantiomer 10^-9 M + F 0.5%
# [16] = ketoprofen enantiomer 10^-9 M, F 0%
# [17] = ketoprofen enantiomer 10^-10 M + F 0.05%, 0.0001 µM
# [18] = ketoprofen enantiomer 10^-10 M + F 0.05%
# [19] = ketoprofen enantiomer 10^-10 M + F 0.1%
# [20] = ketoprofen enantiomer 10^-10 M + F 0.5%
# [21] = ketoprofen enantiomer 10^-10 M, F 0%
structure (smiles),measurement,setting,value
CC(C(=O)O)c1cccc(C(=O)c2ccccc2)c1 (racemic) [ketoprofen],inhibition of PGE2 (in words),[1]; 10^-10 M ketoprofen alone,undetected
same,PGE2 production (in words),[1]; 10^-10 M ketoprofen at 260 mM fluoride,totally inhibited
same,inhibition at 0.001 µM,[1]; [3],40%
same,inhibition at 0.01 µM,[1]; [3],63%
same,inhibition at 0.1 µM,[1]; [3],82%
same,IC50,"[1]; Homo sapiens, HL-60, read-out: IC50, PGE2 production, racemic ketoprofen + 52 mM fluoride",11.8 nM
same,IC50,"[1]; Homo sapiens, HL-60, read-out: IC50, PGE2 production, racemic ketoprofen alone (no F)",2.8 nM
same,inhibition at 0.0001 µM,"[1]; Homo sapiens, HL-60, read-out: inhibition of PGE2 levels",26%
same,% inhibition of PGE2,[1]; racemic ketoprofen 10^-7 M + fluoride 26 mM,66%
same,% inhibition of PGE2,[1]; racemic ketoprofen 10^-7 M + fluoride 52 mM,85%
same,% inhibition of PGE2,[1]; racemic ketoprofen 10^-7 M + fluoride 260 mM,98%
same,% inhibition of PGE2,[1]; racemic ketoprofen 10^-8 M + fluoride 52 mM,46%
same,% inhibition of PGE2,[1]; racemic ketoprofen 10^-8 M + fluoride 260 mM,97%
same,% stimulation of PGE2 (value in parentheses),[1]; racemic ketoprofen 10^-9 M + fluoride 26 mM,125%
same,% inhibition of PGE2,[1]; racemic ketoprofen 10^-9 M + fluoride 52 mM,11%
same,% inhibition of PGE2,[1]; racemic ketoprofen 10^-9 M + fluoride 260 mM,101%
same,% stimulation of PGE2 (value in parentheses),[1]; racemic ketoprofen 10^-10 M + fluoride 26 mM,125%
same,% inhibition of PGE2,[1]; racemic ketoprofen 10^-10 M + fluoride 260 mM,102%
same,increase of IC50 for ketoprofen by fluoride,[1]; fluoride 0.1% (52 mM) vs ketoprofen alone,approximately 4 fold
same,stimulation induced by F^- (in words),[1]; highest concentration of ketoprofen (10^-7),overcome
C[C@H](C(=O)O)c1cccc(C(=O)c2ccccc2)c1 [(S)-Ketoprofen],IC50,[1]; [4],~0.4 nM
same,"relative potency, inhibition of PGE2 secretion (in words)",[1]; S- vs R-ketoprofen,more potent than R-ketoprofen
same,% Inhibition of A23187-induced PGE2 secretion,[1]; [5],95%
same,% Inhibition of A23187-induced PGE2 secretion,[1]; [6],98%
same,% Inhibition of A23187-induced PGE2 secretion,[1]; [7],99%
same,% Inhibition of A23187-induced PGE2 secretion,[1]; [8],96%
same,% Inhibition of A23187-induced PGE2 secretion,[1]; [9],82%
same,% Inhibition of A23187-induced PGE2 secretion,[1]; [10],89%
same,% Inhibition of A23187-induced PGE2 secretion,[1]; [11],98%
same,% Inhibition of A23187-induced PGE2 secretion,[1]; [12],89%
same,% Inhibition of A23187-induced PGE2 secretion,[1]; [13],35%
same,% Inhibition of A23187-induced PGE2 secretion,[1]; [14],54%
same,% Inhibition of A23187-induced PGE2 secretion,[1]; [15],100%
same,% Inhibition of A23187-induced PGE2 secretion,[1]; [16],70%
same,"stimulation factor, A23187-induced PGE2 secretion",[1]; [17],1.22 ×
same,% stimulation of A23187-induced PGE2 secretion,[1]; [18],27%
same,% Inhibition of A23187-induced PGE2 secretion,[1]; [19],18%
same,% Inhibition of A23187-induced PGE2 secretion,[1]; [20],100%
same,% Inhibition of A23187-induced PGE2 secretion,[1]; [21],10%
C[C@@H](C(=O)O)c1cccc(C(=O)c2ccccc2)c1 [(R)-Ketoprofen],IC50,[1]; [4],~100 nM
same,% Inhibition of A23187-induced PGE2 secretion,[1]; [5],47%
same,% Inhibition of A23187-induced PGE2 secretion,[1]; [6],75%
same,% Inhibition of A23187-induced PGE2 secretion,[1]; [7],100%
same,% Inhibition of A23187-induced PGE2 secretion,[1]; [8],81%
same,% Inhibition of A23187-induced PGE2 secretion,[1]; [9],5%
same,% Inhibition of A23187-induced PGE2 secretion,[1]; [10],32%
same,% Inhibition of A23187-induced PGE2 secretion,[1]; [11],99%
same,% Inhibition of A23187-induced PGE2 secretion,[1]; [12],39%
same,"stimulation factor, A23187-induced PGE2 secretion","[1]; ketoprofen enantiomer 10^-9 M + F 0.05%, 0.001 µM",1.14 ×
same,% stimulation of A23187-induced PGE2 secretion,[1]; [13],14%
same,% Inhibition of A23187-induced PGE2 secretion,[1]; [14],2%
same,% Inhibition of A23187-induced PGE2 secretion,[1]; [15],99%
same,% Inhibition of A23187-induced PGE2 secretion,[1]; [16],6%
same,"stimulation factor, A23187-induced PGE2 secretion",[1]; [17],1.27 ×
same,% stimulation of A23187-induced PGE2 secretion,[1]; [18],27%
same,% Inhibition of A23187-induced PGE2 secretion,[1]; [19],23%
same,% Inhibition of A23187-induced PGE2 secretion,[1]; [20],98%
same,% Inhibition of A23187-induced PGE2 secretion,[1]; [21],14%
"[F-].[Na+] [fluoride, sodium fluoride]",activation of G proteins (in words),G proteins,activate G proteins
same,prevention of dental caries (in words),dental caries,effective in preventing dental caries among high risk patients
same,"PGE2 secretion, % Control, 1st Value",[1]; F 0.0001% (52 μM),80.1%
same,"PGE2 secretion, % Control, 2nd value",[1]; F 0.0001% (52 μM),87.4%
same,"PGE2 secretion, % Control, mean",[1]; F 0.0001% (52 μM),83.7%
same,"PGE2 secretion, % Control, 1st Value",[1]; F 0.001% (520 μM),94.1%
same,"PGE2 secretion, % Control, 2nd value",[1]; F 0.001% (520 μM),74.9%
same,"PGE2 secretion, % Control, mean",[1]; F 0.001% (520 μM),84.5%
same,"PGE2 secretion, % Control, 1st Value",[1]; F 0.01% (5.2 mM),117.7%
same,"PGE2 secretion, % Control, 2nd value",[1]; F 0.01% (5.2 mM),99.8%
same,"PGE2 secretion, % Control, mean",[1]; F 0.01% (5.2 mM),108.7%
same,"PGE2 secretion, % Control, 1st Value",[1]; F 0.02% (10.4 mM),188.7%
same,"PGE2 secretion, % Control, 2nd value",[1]; F 0.02% (10.4 mM),208.8%
same,"PGE2 secretion, % Control, mean",[1]; F 0.02% (10.4 mM),198.8%
same,"PGE2 secretion, % Control, 1st Value",[1]; F 0.05% (26 mM),157.9%
same,"PGE2 secretion, % Control, 2nd value",[1]; F 0.05% (26 mM),177.3%
same,"PGE2 secretion, % Control, mean",[1]; F 0.05% (26 mM),167.6%
same,"stimulation factor, A23187-induced PGE2 secretion","[1]; F 0.05%, ketoprofen 0",1.16 ×
same,% stimulation of A23187-induced PGE2 secretion,"[1]; F 0.05%, ketoprofen 0",16%
same,"PGE2 secretion, % Control, 1st Value",[1]; F 0.07% (36 mM),142.1%
same,"PGE2 secretion, % Control, 2nd value",[1]; F 0.07% (36 mM),142.1%
same,"PGE2 secretion, % Control, mean",[1]; F 0.07% (36 mM),142.1%
same,"PGE2 secretion, % Control, 1st Value",[1]; F 0.1% (52 mM),115.1%
same,"PGE2 secretion, % Control, 2nd value",[1]; F 0.1% (52 mM),112.6%
same,"PGE2 secretion, % Control, mean",[1]; F 0.1% (52 mM),113.9%
same,% Inhibition of A23187-induced PGE2 secretion,"[1]; F 0.1%, ketoprofen 0",26%
same,"PGE2 secretion, % Control, 1st Value",[1]; F 0.2% (104 mM),5.2%
same,"PGE2 secretion, % Control, 2nd value",[1]; F 0.2% (104 mM),8.9%
same,"PGE2 secretion, % Control, mean",[1]; F 0.2% (104 mM),7.0%
same,"PGE2 secretion, % Control, 1st Value",[1]; F 0.3% (156 mM),4.9%
same,"PGE2 secretion, % Control, 2nd value",[1]; F 0.3% (156 mM),3.1%
same,"PGE2 secretion, % Control, mean",[1]; F 0.3% (156 mM),4.0%
same,"PGE2 secretion, % Control, 1st Value",[1]; F 0.5% (260 mM),0.5%
same,"PGE2 secretion, % Control, 2nd value",[1]; F 0.5% (260 mM),1.7%
same,"PGE2 secretion, % Control, mean",[1]; F 0.5% (260 mM),1.1%
same,% Inhibition of A23187-induced PGE2 secretion,"[1]; F 0.5%, ketoprofen 0",96%
same,production of prostaglandins (in words),[1]; concentration range employed for the prevention of dental caries,stimulates the production of prostaglandins
same,maximum stimulation of PGE2 secretion,[1]; fluoride 0.02%,99%
same,effect of fluoride on the inhibitory effects of R- and S-ketoprofen (in words),[1]; fluoride 26 mM,decrease of the inhibitory effects of R- and S-ketoprofen
same,effect of fluoride in combination with R- and S-ketoprofen (in words),[1]; fluoride 260 mM,amplifies its inhibitory effects
same,effect on PGE2 secretion (in words),[1]; fluoride above 0.2%,completely inhibits PGE2 secretion
same,stimulation of PGE2 production,"[1]; fluoride alone, 26 mM (0.05%)",108%
same,inhibition of PGE2 production,"[1]; fluoride alone, 52 mM",12%
same,inhibition of PGE2 production,"[1]; fluoride alone, 260 mM",92%
same,effect on stimulated PGE2 secretion (in words),[1]; fluoride below about 5 mM (below about 0.01% w/v),no significant effect
same,effect on PGE2 secretion (in words),[1]; fluoride from 0.0001 to 0.01%,no effect
same,effect on PGE2 secretion (in words),[1]; fluoride from 0.02 to 0.07%,induces stimulation
same,effect on PGE2 secretion (in words),[1]; fluoride ion above about 50 mM (above about 0.1% w/v),inhibitory to PGE2 secretion
same,"peak production of PGE2, % of control",[1]; fluoride ion at about 10 mM,200%
same,production of PGE2 (in words),[1]; fluoride ion between about 5 and about 50 mM,stimulates the production of prostaglandin E2
same,prostaglandin production in endothelial cells (in words),[2],induce prostaglandin production
COc1ccc2c(c1)c(CC(=O)O)c(C)n2C(=O)c1ccc(Cl)cc1 [indomethacin],IC50,"[1]; Homo sapiens, HL-60, read-out: IC50, A23187-induced PGE2 secretion, in the absence of fluoride",0.92 nM

# From patent publication US5807541A, “NSAID/fluoride periodontal compositions and methods” (Sepracor, Inc., priority 1996, dated 1998)
